# Assay results as given in patent US7709471B2, “Compounds” (AstraZeneca AB, priority 2006, dated 2010).
# Biological target: recombinant Plk1 (Homo sapiens, UniProt P53350)
# Assay: In Vitro Plk1 Enzyme Assay (SPA, GST-Cdc25C phosphorylation)
# Type: biochemical
# Details: ATP 64 nM, 90 minutes, read-out: IC50 (Plk1 enzyme inhibition)
# recombinant Plk1, sequence (P53350 whole entry): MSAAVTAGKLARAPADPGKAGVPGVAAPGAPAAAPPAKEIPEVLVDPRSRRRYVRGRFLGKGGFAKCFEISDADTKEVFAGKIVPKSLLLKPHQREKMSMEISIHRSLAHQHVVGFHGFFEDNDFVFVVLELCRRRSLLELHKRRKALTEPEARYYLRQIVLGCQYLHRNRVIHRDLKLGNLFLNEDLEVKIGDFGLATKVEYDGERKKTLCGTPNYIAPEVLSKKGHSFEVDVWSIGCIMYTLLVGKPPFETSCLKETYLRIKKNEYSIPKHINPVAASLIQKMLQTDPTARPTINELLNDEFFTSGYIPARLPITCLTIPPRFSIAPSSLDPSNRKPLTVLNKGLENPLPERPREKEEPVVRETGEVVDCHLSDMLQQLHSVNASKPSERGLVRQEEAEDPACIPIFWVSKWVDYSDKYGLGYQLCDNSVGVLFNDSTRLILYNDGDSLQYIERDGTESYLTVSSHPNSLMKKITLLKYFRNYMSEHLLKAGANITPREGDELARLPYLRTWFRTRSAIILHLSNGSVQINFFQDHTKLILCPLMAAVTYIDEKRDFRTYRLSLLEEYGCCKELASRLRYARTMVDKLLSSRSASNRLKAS
row,IC50 [nM],Compound
1,< 100000,"CN1C(=O)CCN(C2CCCC2)c2nc(Nc3cccc(C#N)c3)ncc21 [Example 164, 3-[(6-cyclopentyl-2-methyl-3-oxo-2,6,8,10-tetrazabicyclo[5.4.0]undeca-8,10,12-trien-9-yl)amino]benzonitrile]"
2,< 1000,"CCOc1cccc(Nc2ncc3c(n2)N(C2CCCC2)CCC(=O)N3C)c1 [Example 162, 6-cyclopentyl-9-[(3-ethoxyphenyl)amino]-2-methyl-2,6,8,10-tetrazabicyclo[5.4.0]undeca-8,10,12-trien-3-one]"
3,< 300,"CNC(=O)c1ccc(Nc2ncc3c(n2)N(C2CCCC2)CCC(=O)N3C)cc1 [Example 102, 4-[(6-cyclopentyl-2-methyl-3-oxo-2,6,8,10-tetrazabicyclo[5.4.0]undeca-8,10,12-trien-9-yl)amino]-N-methyl-benzamide]"
4,< 1000,"Cc1nc(Nc2ncc3c(n2)N(C2CCCC2)CCC(=O)N3C)sc1C(=O)NC1CCN(C)CC1 [Example 262, 2-[(6-cyclopentyl-2-methyl-3-oxo-2,6,8,10-tetrazabicyclo[5.4.0]undeca-8,10,12-trien-9-yl)amino]-4-methyl-N-(1-methyl-4-piperidyl)1,3-thiazole-5-carboxamide]"
5,< 100000,"COc1cc(C(=O)NC2CCN(C)CC2)ccc1Nc1ncc2c(n1)N(c1ccccc1)CCC(=O)N2 [Example 251, 3-methoxy-N-(1-methyl-4-piperidyl)-4-[(3-oxo-6-phenyl-2,6,8,10-tetrazabicyclo[5.4.0]undeca-8,10,12-trien-9-yl)amino]benzamide]"
6,< 100000,"CN1C(=O)c2cccc(Nc3ncc4c(n3)N(C3CCCC3)CCC(=O)N4C)c2C1=O [Example 137, 4-[(6-cyclopentyl-2-methyl-3-oxo-2,6,8,10-tetrazabicyclo[5.4.0]undeca-8,10,12-trien-9-yl)amino]-2-methyl-isoindole-1,3-dione]"
7,< 100000,"CN1C(=O)CCN(C2CCCC2)c2nc(Nc3cccc(S(=O)(=O)N4CCOCC4)c3)ncc21 [Example 183, 6-cyclopentyl-2-methyl-9-[(3-morpholin-4-ylsulfonylphenyl)amino]-2,6,8,10-tetrazabicyclo[5.4.0]undeca-8,10,12-trien-3-one]"
8,< 100000,"CN1C(=O)CCN(C2CCCC2)c2nc(Nc3ccc(S(=O)(=O)NCCO)cc3)ncc21 [Example 117, 4-[(6-cyclopentyl-2-methyl-3-oxo-2,6,8,10-tetrazabicyclo[5.4.0]undeca-8,10,12-trien-9-yl)amino]-N-(2-hydroxyethyl)benzenesulfonamide]"
9,< 100000,"CN1C(=O)CCN(C2CCCC2)c2nc(Nc3ccccc3Oc3ccccc3)ncc21 [Example 146, 6-cyclopentyl-2-methyl-9-[(2-phenoxyphenyl)amino]-2,6,8,10-tetrazabicyclo[5.4.0]undeca-8,10,12-trien-3-one]"
10,< 100000,"CN1C(=O)CCN(C2CCCC2)c2nc(Nc3ccccc3Oc3ccc(C(C)(C)C)cc3)ncc21 [Example 153, 6-cyclopentyl-2-methyl-9-[[2-(4-tert-butylphenoxy)phenyl]amino]-2,6,8,10-tetrazabicyclo[5.4.0]undeca-8,10,12-trien-3-one]"
11,< 100000,"CN(C)CC(C)(C)CNC(=O)c1ccc(Nc2ncc3c(n2)N(C2CCCC2)CCC(=O)N3)c(Cl)c1 [Example 255, 3-chloro-4-[(6-cyclopentyl-3-oxo-2,6,8,10-tetrazabicyclo[5.4.0]undeca-8,10,12-trien-9-yl)amino]-N-(3-dimethylamino-2,2-dimethyl-propyl)benzamide]"
12,< 100000,"CN1C(=O)CCN(C2CCCC2)c2nc(Nc3ccccc3Cc3ccccc3)ncc21 [Example 157, 9-[(2-benzylphenyl)amino]-6-cyclopentyl-2-methyl-2,6,8,10-tetrazabicyclo[5.4.0]undeca-8,10,12-trien-3-one]"
13,< 100000,"CN1C(=O)CCN(C2CCCC2)c2nc(Nc3ccncc3)ncc21 [Example 268, 6-cyclopentyl-2-methyl-9-(pyridin-4-ylamino)-2,6,8,10-tetrazabicyclo[5.4.0]undeca-8,10,12-trien-3-one]"
14,< 100000,"CN1C(=O)CCN(C2CCCC2)c2nc(Nc3cccc(C(=O)c4ccccc4)c3)ncc21 [Example 169, 9-[(3-benzoylphenyl)amino]-6-cyclopentyl-2-methyl-2,6,8,10-tetrazabicyclo[5.4.0]undeca-8,10,12-trien-3-one]"

# System: human colon tumour cell line HT29
# Assay: Cellular Assay (phosphohistone H3 Ser10 mitotic marker, HT29)
# Type: cell-based
# Details: HT-29, 24 h, HT29 cells, read-out: IC50 (cellular assay, phosphohistone H3)
row,Compound,IC50 [nM]
1,"COc1cc(C(=O)NC2C[C@H]3CCC[C@@H](C2)N3C)c(F)cc1Nc1ncc2c(n1)N(C1CCCCC1)CC1(CC1)C(=O)N2C (stereo partly drawn) [Example 442, 4-(9′-cyclohexyl-5′-methyl-6′-oxo-5′,6′,8′,9′-tetrahydrospiro[cyclopropane-1,7′-pyrimido[5,4-b][1,4]diazepine]-2′-ylamino)-2-fluoro-5-methoxy-N-[(1S,5R)-9-methyl-9-azabicyclo[3.3.1]non-3-yl]benzamide]",< 300
2,"CC(C)N1CC(C)(C)C(=O)N(C)c2cnc(Nc3cc(F)c(C(=O)NC4CCN(C)CC4)cc3Cl)nc21 [Example 289, 5-chloro-2-fluoro-N-(1-methyl-4-piperidyl)-4-[(4,4,6-trimethyl-5-oxo-2-propan-2-yl-2,6,9,11-tetrazabicyclo[5.4.0]undeca-7,9,11-trien-10-yl)amino]benzamide]",< 1000
3,"COc1cc(C(=O)NC2C[C@H]3CCC[C@@H](C2)N3C)ccc1Nc1ncc2c(n1)N(C1CCCCC1)CCC(=O)N2C (stereo partly drawn) [Example 418, 4-[(2-cyclohexyl-6-methyl-5-oxo-2,6,9,11-tetrazabicyclo[5.4.0]undeca-7,9,11-trien-10-yl)amino]-3-methoxy-N-[(1R,5S)-9-methyl-9-azabicyclo[3.3.1]non-7-yl]benzamide]",< 300
4,"COc1cc(C(=O)NCCN2CCCC2)ccc1Nc1ncc2c(n1)N(C(C)C)CC(C)(C)C(=O)N2C [Example 301, 3-methoxy-N-(2-pyrrolidin-1-ylethyl)-4-[(4,4,6-trimethyl-5-oxo-2-propan-2-yl-2,6,9,11-tetrazabicyclo[5.4.0]undeca-7,9,11-trien-10-yl)amino]benzamide]",< 1000
5,"COc1cc(C(=O)NC2C[C@H]3CCC[C@@H](C2)N3C)c(F)cc1Nc1ncc2c(n1)N(C1CCCC1)CC1(CC1)C(=O)N2C (stereo partly drawn) [Example 404, 4-(9′-cyclopentyl-5′-methyl-6′-oxo-5′,6′,8′,9′-tetrahydrospiro[cyclopropane-1,7′-pyrimido[5,4-b][1,4]diazepine]-2′-ylamino)-2-fluoro-5-methoxy-N-[(1S,5R)-9-methyl-9-azabicyclo[3.3.1]non-3-yl]benzamide]",< 300

# Other lines, results leading:
row,IC50 [nM],Compound
1,< 300,"CCN1CCC(NC(=O)c2ccc(Nc3ncc4c(n3)N(C3CCCC3)CC3(CC3)C(=O)N4C)c(F)c2)CC1 [Example 406, 4-(9′-cyclopentyl-5′-methyl-6′-oxo-5′,6′,8′,9′-tetrahydrospiro[cyclopropane-1,7′-pyrimido[5,4-b][1,4]diazepine]-2′-ylamino)-N-(1-ethyl-4-piperidyl)-3-fluoro-benzamide]"
2,< 300,"COc1cc(C(=O)NC2CCN(C)CC2)ccc1Nc1ncc2c(n1)N(C1CCCC1)CC1(CCCC1)C(=O)N2C [Example 409, 4-(9′-cyclopentyl-5′-methyl-6′-oxo-5′,6′,8′,9′-tetrahydrospiro[cyclopentane-1,7′-pyrimido[5,4-b][1,4]diazepine]-2′-ylamino)-3-methoxy-N-(1-methylpiperidin-4-yl)benzamide]"
3,< 1000,"COc1cc(C(=O)NCC2(CN3CCCC3)CC2)c(F)cc1Nc1ncc2c(n1)N(C1CCCC1)CC1(CC1)C(=O)N2C [Example 405, 4-(9′-cyclopentyl-5′-methyl-6′-oxo-5′,6′,8′,9′-tetrahydrospiro[cyclopropane-1,7′-pyrimido[5,4-b][1,4]diazepine]-2′-ylamino)-2-fluoro-5-methoxy-N-[[1-(pyrrolidin-1-ylmethyl)cyclopropyl]methyl]benzamide]"
4,< 300,"CCN1CCC(NC(=O)c2cc(F)c(Nc3ncc4c(n3)N(C3CCCCC3)CCC(=O)N4C)cc2F)CC1 [Example 415, 4-[(2-cyclohexyl-6-methyl-5-oxo-2,6,9,11-tetrazabicyclo[5.4.0]undeca-7,9,11-trien-10-yl)amino]-N-(1-ethyl-4-piperidyl)-2,5-difluoro-benzamide]"
5,< 300,"COc1cc(C(=O)NC2CCCCN(C)C2)ccc1Nc1ncc2c(n1)N(C1CCCC1)CCC(=O)N2C (stereo not shown) [Example 453, 4-[(2-cyclopentyl-6-methyl-5-oxo-2,6,9,11-tetrazabicyclo[5.4.0]undeca-7,9,11-trien-10-yl)amino]-3-methoxy-N-(1-methylazepan-3-yl)benzamide]"
6,< 300,"CN1C(=O)C(C)(C)CN(C2CCCC2)c2nc(Nc3cc(F)c(C(=O)NC4CCC(N(C)C)CC4)cc3Cl)ncc21 (stereo not shown) [Example 366, 5-chloro-4-[(2-cyclopentyl-4,4,6-trimethyl-5-oxo-2,6,9,11-tetrazabicyclo[5.4.0]undeca-7,9,11-trien-10-yl)amino]-N-(4-dimethylaminocyclohexyl)-2-fluoro-benzamide]"
7,< 300,"COc1cc(C(=O)NC2CCC(N3CCC3)CC2)ccc1Nc1ncc2c(n1)N(C1CCCC1)CC(C)(C)C(=O)N2C (stereo not shown) [Example 374, N-[4-(azetidin-1-yl)cyclohexyl]-4-[(2-cyclopentyl-4,4,6-trimethyl-5-oxo-2,6,9,11-tetrazabicyclo[5.4.0]undeca-7,9,11-trien-10-yl)amino]-3-methoxy-benzamide]"
8,< 300,"COc1cc(C(=O)NCC(C)(C)CN2CCCC2)ccc1Nc1ncc2c(n1)N(C1CCCC1)CC1(CC1)C(=O)N2C [Example 401, 4-(9′-cyclopentyl-5′-methyl-6′-oxo-5′,6′,8′,9′-tetrahydrospiro[cyclopropane-1,7′-pyrimido[5,4-b][1,4]diazepine]-2′-ylamino)-N-(2,2-dimethyl-3-pyrrolidin-1-yl-propyl)-3-methoxy-benzamide]"
9,< 300,"COc1cc(C(=O)NCCN(C)C)ccc1Nc1ncc2c(n1)N(C1CCCCC1)CCC(=O)N2C [Example 426, 4-[(2-cyclohexyl-6-methyl-5-oxo-2,6,9,11-tetrazabicyclo[5.4.0]undeca-7,9,11-trien-10-yl)amino]-N-(2-dimethylaminoethyl)-3-methoxy-benzamide]"
